Assay results: US6451850B1, “Bio-chemical germanium complexes with high therapeutic efficiency and wide application spectrum” (priority 2001, dated 2002)
Like-named read-outs stand apart in the source and are kept apart here.

Protocol: Water solutions or suspensions of the complexes under investigation have been injected intraperitoneally 30÷60 min. before beginning of the experiment. Animals from the control group got equal amounts of physiological salt solution. High altitude hypoxia was made in special air tight chambers, in which a lift of the animals up to the altitude 10,000 m has been imitated by pumping out of air. A criterion of validity for the complexes was increase of mice life length and survivability of these.
Interferon inducing activity of the complexes has been studied with various methods, including the study with native leukocytes of human donor blood.
Antiinflammatory effect has been studied for animals according to the method by Ju. Strel'nikov. Experiments have been carried out with white mice of mass 20 g. Aseptic inflammation was caused by injection of 0.1 ml of 2.5% formalin solution into thigh thickness of an animal's paw. A compound under investigation was injected into the stomach in the dose equimolecular to 20 mg/kg of indometacin two hours before the injection of formalin. Distinction of the edema was estimated by increase of a mass of inflamed and uninflammed paws in experimental groups of animals compared to control ones. […] Simultaneously antiinflammatory activity of indometacin was studied for comparison.

SMILES	Expansion of Effect Spectrum for the Complex Medicament (Table 5)	Expansion of Effect Spectrum for the Complex Medicament (Table 4)
CN1CCN(CCCN2c3ccccc3Sc3ccc(Cl)cc32)CC1.[SH][Ge]12[O]CCN(CC[O]1)CC[O]2 [Meterazinum OGC (R = SH)]	- . -	–
CCC1(c2ccccc2)C(=O)NC(=O)NC1=O.O=C1CN2CC[O][Ge]([C]34CC5CC(CC(C5)C3)C4)([O]1)[O]C(=O)C2	- . -	–
CN1C(=O)CN=C(c2ccccc2)c2cc(Cl)ccc21.[SH][Ge]12[O]CCN(CC[O]1)CC[O]2 [Diazepam OGC (R = SH)]	- . -	–
CN1C(=O)CN=C(c2ccccc2)c2cc(Cl)ccc21.[OH][Ge]12[O]CCN(CC[O]1)CC[O]2 [Diazepam OGC (R = OH)]	- . -	–
CN1CCN=C(c2ccccc2)c2cc(Cl)ccc21.O=C1CN2CC[O][Ge]([C]34CC5CC(CC(C5)C3)C4)([O]CC2)[O]1 [Mezapamun OGC (R = adamantyl, R1R2 = O)]	- . -	–
CCC1(c2ccccc2)C(=O)NCNC1=O.[OH][Ge]12[O]CCN(CC[O]1)CC[O]2 [Hexamidinum OGC (R = OH)]	- . -	–
CC1CN2CC[O][Ge]([OH])([O]CC2)[O]1.Nc1ncnc2c1ncn2C1OC(CO)C(O)C1O (stereo not shown) [Vidarabinum OGC(R = OH, R1 = CH3)]	–	- . -
CN1CCN=C(c2ccccc2)c2cc(Cl)ccc21.[CH3][Ge]([CH3])([CH3])[O][Ge]12[O]CCN(CC[O]1)CC[O]2 [Mezapamun OGC (R = OGeMe3)]	- . -	–
C[Si](C)(C)[O][Ge]12[O]CCN(CC[O]1)CC[O]2.Cc1cn([C@H]2C[C@H](N=[N+]=[N-])[C@@H](CO)O2)c(=O)[nH]c1=O [Zidovudine OGC (R = OSiMe3)]	–	- . -
CN1CCN=C(c2ccccc2)c2cc(Cl)ccc21.[CH3][Ge]12[O]CCN(CC(=O)[O]1)CC(=O)[O]2 [Mezapamun OGC (R = CH3) R1R2 = R5R6 = O)]	- . -	–
CN(C)CCC=C1c2ccccc2Sc2ccc(Cl)cc21.[SH][Ge]12[O]CCN(CC[O]1)CC[O]2 [Chlorprotexenum OGC (R = SH)]	- . -	–
N[C@@H](Cc1ccc(O)c(O)c1)C(=O)O.[OH][Ge]12[O]CCN(CC[O]1)CC[O]2 [Levodopa OGC (R = OH)]	- . -	–
N[C@@H](Cc1ccc(O)c(O)c1)C(=O)O.O=C1CN2CC[O][Ge]([C]34CC5CC(CC(C5)C3)C4)([O]1)[O]C(=O)C2	- . -	–
[SH][Ge]12[O]CCN(CC[O]1)CC[O]2.c1ccc(Cc2nc3ccccc3[nH]2)cc1 [Dibasolum OGC (R = SH)]	–	- . -
NC12CC3CC(CC(C3)C1)C2.[CH3][Ge]12[O]CCN(CC(=O)[O]1)CC(=O)[O]2	–	- . -
CN(C)CCCN1c2ccccc2Sc2ccc(Cl)cc21.[OH][Ge]12[O]CCN(CC[O]1)CC[O]2 [Aminazinum OGC (R = OH)]	- . -	–
Nc1ncnc2c1ncn2C1OC(CO)C(O)C1O.O=C1CN2CC[O][Ge]([OH])([O]CC2)[O]1 (stereo not shown) [Vidarabinum OGC (R = OH, R1,R2 = O)]	–	- . -
Nc1ncnc2c1ncn2C1OC(CO)C(O)C1O.[OH][Ge]12[O]CCN(CC[O]1)CC[O]2 (stereo not shown) [Vidarabinum OGC(R = OH)]	–	- . -
[OH][Ge]12[O]CCN(CC[O]1)CC[O]2.c1ccc(Cc2nc3ccccc3[nH]2)cc1 [Dibasolum OGC (R = OH)]	–	- . -
CCC1(c2ccccc2)C(=O)NC(=O)NC1=O.[SH][Ge]12[O]CCN(CC[O]1)CC[O]2 [Phenobarbitalum OGC(R = SH)]	- . -	–
O=c1[nH]c(=O)n([C@H]2C[C@H](O)[C@@H](CO)O2)cc1I.[SH][Ge]12[O]CCN(CC[O]1)CC[O]2 [Idoxuridine OGC (R = SH)]	–	- . -
O=C1NC(=O)C(c2ccccc2)(c2ccccc2)N1.[OH][Ge]12[O]CCN(CC[O]1)CC[O]2 [Dipheninum OGC (R = OH)]	- . -	–
[CH3][Ge]12[O]CCN(CC(=O)[O]1)CC(=O)[O]2.c1ccc(Cc2nc3ccccc3[nH]2)cc1 [Dibasolum OGC (R = CH3, R1R2 = R5R6 = O)]	–	- . -
CN(C)CCC=C1c2ccccc2Sc2ccc(Cl)cc21.C[CH2][Ge]12[O]CCN(CC(=O)[O]1)CC(=O)[O]2	- . -	–

SMILES	Expansion of Effect Spectrum for the Complex Medicament (Table 5)	Expansion of Effect Spectrum for the Complex Medicament (Table 4)
CN1CCN(CCCN2c3ccccc3Sc3ccc(Cl)cc32)CC1.[CH3][Ge]12[O]CCN(CC(=O)[O]1)CC(=O)[O]2	- . -	–
CC(N)C12CC3CC(CC(C3)C1)C2.[SH][Ge]12[O]CCN(CC[O]1)CC[O]2 (stereo not shown) [Remantadinum OGC (R = SH)]	–	- . -
CC(N)C12CC3CC(CC(C3)C1)C2.O=C1CN2CC[O][Ge]([OH])([O]CC2)[O]1 (stereo not shown) [Remantadinum OGC (R = OH, R1R2 = O)]	–	- . -
O=C1CN=C(c2ccccc2Cl)c2cc(Br)ccc2N1.[CH3][Ge]12[O]C(=O)CN(CC(=O)[O]1)CC(=O)[O]2	- . -	–
CN(C)CCC=C1c2ccccc2Sc2ccc(Cl)cc21.[OH][Ge]12[O]CCN(CC[O]1)CC[O]2 [Chlorprotexenum OGC (R = OH)]	- . -	–
NC12CC3CC(CC(C3)C1)C2.[OH][Ge]12[O]CCN(CC[O]1)CC[O]2 [Midantanum OGC (R = OH)]	- . -	- . -
CN(C)CCCN1c2ccccc2Sc2ccc(Cl)cc21.O=C1CN2CC[O][Ge]([C]34CC5CC(CC(C5)C3)C4)([O]1)[O]C(=O)C2	- . -	–
CN1CCN(CCCN2c3ccccc3Sc3ccc(Cl)cc32)CC1.[OH][Ge]12[O]CCN(CC[O]1)CC[O]2 [Meterazinum OGC (R = OH)]	- . -	–
CN1CCN=C(c2ccccc2)c2cc(Cl)ccc21.[OH][Ge]12[O]CCN(CC[O]1)CC[O]2 [Mezapamun OGC (R = OH)]	- . -	–
O=c1[nH]c(=O)n(C2CC(O)C(CO)O2)cc1I.[OH][Ge]12[O]CCN(CC[O]1)CC[O]2 (stereo not shown) [Idoxuridine OGC (R = OH)]	–	- . -
C[CH2][Ge]12[O]CCN(CC[O]1)CC(=O)[O]2.Nc1nc2c(ncn2COCCO)c(=O)[nH]1 [Virolex OGC (R = C2H5, R1, R2 = O)]	–	- . -
Cc1cn([C@H]2C[C@H](N=[N+]=[N-])[C@@H](CO)O2)c(=O)[nH]c1=O.[CH3][Ge]([CH3])([CH3])[O][Ge]12[O]CCN(CC[O]1)CC[O]2 [Zidovudine OGC (R = OGeMe3)]	–	- . -
O=C1CN2CC[O][Ge]([C]34CC5CC(CC(C5)C3)C4)([O]CC2)[O]1.O=C1CN=C(c2ccccc2Cl)c2cc(Br)ccc2N1	- . -	–
Cc1cn([C@H]2C[C@H](N=[N+]=[N-])[C@@H](CO)O2)c(=O)[nH]c1=O.[SH][Ge]12[O]CCN(CC[O]1)CC[O]2 [Zidovudine OGC (R = SH)]	–	- . -
O=C1CN=C(c2ccccc2Cl)c2cc(Br)ccc2N1.[OH][Ge]12[O]CCN(CC[O]1)CC[O]2 [Phenazepamum OGC (R = OH)]	- . -	–
C[CH2][Ge]12[O]CCN(CC[O]1)CC(=O)[O]2.O=c1[nH]c(=O)n([C@H]2C[C@H](O)[C@@H](CO)O2)cc1I [Idoxuridine OGC (R = C2H5, R1,R2 = O)]	–	- . -
CCC1(c2ccccc2)C(=O)NCNC1=O.O=C1CN2CC[O][Ge]([C]34CC5CC(CC(C5)C3)C4)([O]1)[O]C(=O)C2	- . -	–
Cc1cn([C@H]2C[C@H](N=[N+]=[N-])[C@@H](CO)O2)c(=O)[nH]c1=O.[OH][Ge]12[O]CCN(CC[O]1)CC[O]2 [Zidovudine OGC (R = OH)]	–	- . -
Cc1cn([C@H]2C[C@H](N=[N+]=[N-])[C@@H](CO)O2)c(=O)[nH]c1=O.[CH3][Ge]12[O]CCN(CC(=O)[O]1)CC(=O)[O]2	–	- . -
CN1CCN=C(c2ccccc2)c2cc(Cl)ccc21.C[Si](C)(C)[O][Ge]12[O]CCN(CC[O]1)CC[O]2 [Mezapamun OGC (R = OSiMe3)]	- . -	–
O=C1CN2CC[O][Ge]([C]34CC5CC(CC(C5)C3)C4)([O]1)[O]C(=O)C2.O=C1NC(=O)C(c2ccccc2)(c2ccccc2)N1	- . -	–
CN(C)CCCN1c2ccccc2Sc2ccc(Cl)cc21.[SH][Ge]12[O]CCN(CC[O]1)CC[O]2 [Aminazinum OGC (R = SH)]	- . -	–
NC12CC3CC(CC(C3)C1)C2.[SH][Ge]12[O]CCN(CC[O]1)CC[O]2 [Midantanum OGC (R = SH)]	- . -	- . -
